Reference: patent publication US20190282518A1 (Bryn Pharma, LLC, priority 2018, published 2019)

System: histamine induced nasal congestion
Settings: 5% histamine aerosol, dogs

NCCc1c[nH]cn1 [Histamine]
induction of nasal congestion: induced congestion in all animals to varying degrees
